By LD50 is commonly meant the dose at which mortality reaches 50%. High values mean a less toxic substance, low ones a more toxic substance.

The values below come from patent publication US6277834A, “Agents for relieving side effects of adrenal cortex hormone” (Senju Pharmaceutical Co. Ltd., priority 1998, dated 2001).

Where a name gives a salt, the structure may show the parent alone. Where only a bound is given, the exact number is not on record here.

The nature of data set [1]: Body weight, thymus and spleen weight in hairless mice after repeated topical application (reduction of side effects of an adrenocortical hormone). The following applies: EPC-K (0.5%) administered concurrently with betamethasone valerate (0.012%), two weeks. As to the method: A test was carried out to examine the effect of the present compound to reduce side effects of an adrenocortical hormone.
(§1) 0.012% betamethasone valerate (dissolved in methanol).
0.012% betamethasone valerate +0.5% EPC-K (dissolved in methanol).
10-week old female HR-1 hairless mice purchased from SLC Japan were used for the test. One hundred μl of the test materials were applied to the respective mice on the whole area of their back skin. This procedure was repeated once a day for two weeks, and then the body weight and the weight of the thymus and the spleen were determined.

The test system of data set [2] is croton oil-induced edema of the right auricles of the mice. The experiment in a line: Croton oil-induced ear edema in mice (antiinflammatory effect). The format is in vivo, ICR mice (10-week old male). How it is done:
A test was performed for examining antiinflammatory effect observed by concurrent use of the present compound and an adrenocortical hormone. In addition, dose-response test was carried out for the adrenocortical hormone.
as §1
0.5% EPC-K (dissolved in methanol).
Twenty μl of croton oil (6%) dissolved in acetone was applied on the outer surface of the right auricles of the mice to induce edema. Fifteen minutes later, 20 μl of one of the test materials was applied to each of the right auricles.
Four hours after the application of the test materials, the thickness of the right auricles of the mice were measured using a dial thickness gauge and edema rates were determined by comparing their thickness with that before induction.

A short description of the next data set: Acute toxicity (LD50). The following applies: in vivo, rat.
Where [3] appears, read: Table 4, 4 h after 20 μl topical, 0.5% EPC-K, 0.012% betamethasone valerate, or both, mean ± S.D. (n = 23-27), methanol 116.1 ± 23.3.
Where [4] appears, read: Table 4, edema inhibition 4 h after 20 μl topical, 0.5% EPC-K, 0.012% betamethasone valerate, or both, n = 23-27.

`Cc1c(C)c2c(c(C)c1OP(=O)(O)OC1=C(O)[C@@H]([C@@H](O)CO)OC1=O)CCC(C)(CCCC(C)CCCC(C)CCCC(C)C)O2` (mixture of isomers) [EPC-K, potassium salt of phosphodiester of L-ascorbic acid and DL-α-tocopherol]: in data set [1], the “atrophy of spleen (by betamethasone valerate)” value is on record as “suppressed”, the “atrophy of thymus (by betamethasone valerate)” value is “suppressed” and the “body weight reduction (by betamethasone valerate)” value is “suppressed”. In addition, in data set [2] (setting [3]), the “Edema rate(%)” value was 109.1 ± 26.3%. Further, the “Inhibition rate(%)” value in data set [2] (setting [4]) stood at 6.0%. The compound also came in with an LD50 in “Acute toxicity (LD50)” (iv) of over 100 mg/kg. In “Acute toxicity (LD50)” (po), this compound registered a median lethal dose (LD50) of over 5000 mg/kg.
Consider `CCCCC(=O)O[C@]1(C(=O)CO)[C@@H](C)C[C@H]2[C@@H]3CCC4=CC(=O)C=C[C@]4(C)[C@@]3(F)[C@@H](O)C[C@@]21C` [Betamethasone valerate, betamethasone valerate], for which the “Edema rate(%)” value worked out at 87.3 ± 21.7% in data set [2] (setting [3]); 101.6 ± 15.3% in data set [2] (Table 5 dose-response, 0.012% betamethasone valerate, 4 h, mean ± S.D. (n = 8-9), methanol 138.8 ± 18.5); 86.5 ± 30.3% in data set [2] (Table 5 dose-response, 0.040% betamethasone valerate, 4 h, mean ± S.D. (n = 8-9), methanol 138.8 ± 18.5); 52.8 ± 13.3% in data set [2] (Table 5 dose-response, 0.12% betamethasone valerate, 4 h, mean ± S.D. (n = 8-9), methanol 138.8 ± 18.5). The “Inhibition rate(%)” value in data set [2] (setting [4]) worked out at 27.9%; in data set [2] (Table 5 dose-response, 0.012% betamethasone valerate, 4 h, n = 8-9), 26.8%; in data set [2] (Table 5 dose-response, 0.040% betamethasone valerate, 4 h, n = 8-9), 37.7%; in data set [2] (Table 5 dose-response, 0.12% betamethasone valerate, 4 h, n = 8-9) it was 62.0%. Besides, in data set [2] (calculated from the dose-response test (Table 5)), the “concentration of betamethasone valerate that would give an effect comparable to 0.012% betamethasone valerate plus 0.5% EPC-K” value was 0.088%.
